Measurements published in patent US8637310B2, “Use of a rock inhibitor to sustain primary human keratinocytes in a proliferative state” (The United States of America, as represented by the …, priority 2008, dated 2014).

Experiments:
[1] = test system: human cervical keratinocytes (HCK); test: Long-term culture / immortalization of primary human cervical keratinocytes on feeder cells; type: cell-based; conditions: 10 μM Y-27632; FIG. 9
Procedure: (§1) The HPV18 cell line was established by introducing the HPV18 genome into primary HFKs using the Amaxa human keratinocyte nucleofection system. Primary human cervical keratinocytes (HCKs), human vaginal keratinocytes (HVKs), the HPV18 cell lines and the HPV31 positive cell line (CIN-612 9E) were grown in the presence or absence of 10 μM Y-27632 (Alexis Biochemicals), as indicated. Cells were subcultured by removing the fibroblast feeder cells with versene and keratinocytes were collected by trypsinization. At each pass, 2×10^5 cells were plated on a 10 cm plate of J2 feeder cells. Population doubling was calculated as: PD=3.32(log(# cells harvested/# cells seeded)). Immunodetection

[2] = test system: human foreskin keratinocytes (HFK); test: Long-term culture / immortalization of primary human foreskin keratinocytes on irradiated J2 feeder cells; type: cell-based
Procedure: Primary human foreskin keratinocytes (HFKs) were isolated and pooled from neonatal human foreskins from seven donors and grown in F medium (3: 1(v/v) F-12 Nutrient Mixture: DMEM, 5% FBS, 0.4 μg/ml hydrocortisone, 5 μg/ml insulin, 8.4 ng/ml cholera toxin, 10 ng/ml EGF, and 24 μg/ml adenine) (Jeon et al., Proc. Natl. Acad. Sci. USA 92:1654-1658, 1995) in the presence of irradiated J2 feeder cells. HFKs were divided into 10 cm plates, containing F-media with or without the addition of 10 μM Y-27632 (Alexis Biochemicals, San Diego, Calif.).
Human foreskin keratinocytes (HFKs) were isolated from pools of at least seven neonatal foreskins and grown in 154 medium supplemented with Human
Keratinocyte Growth Supplement and Gentamicin/Amphotericin (Invitrogen, Carlsbad, Calif.) or in F medium [3:1 (v/v) F-12 (Ham)-DMEM, 5% FBS, 0.4 μg/ml hydrocortisone, 5 μg/ml insulin, 8.4 ng/ml cholera toxin, 10 ng/ml EGF, 24 μg/ml adenine, 100 U penicillin, 100 μg/ml streptomycin (Invitrogen, cat no. 15140-148)] in the presence of irradiated 3T3 J2 feeder cells (Jeon et al., J. Virol. 69: 2989-2997, 1995).
as §1

[3] = test system: foreskin keratinocyte line (strain a); test: Karyotype analysis of immortalized cells; type: cell-based, human; conditions: HFK strain a, 95 passages in Y-27632
Procedure: This was conducted by Molecular Diagnostic Services, Inc. San Diego, Calif. Metaphase spreads were prepared and stained to observe chromosomal G bands.
Twenty metaphase spreads of each cell line was analyzed and five complete karyotypes were prepared from each.

[4] = test system: HPV16; test: HPV16 genome copy number in W12 cells; type: cell-based, human papillomavirus; conditions: 10 μM Y-27632, FIG. 8
Procedure: The 9E and W12 (20863 clone) cell lines were cultured in F-media on irradiated J2 feeder cells. For the Y-27632 experiments they were cultured in F-medium with or without 10 μM Y-27632 and continually passed for the times indicated.
(§2) Cloned viral genomes were cleaved with restriction enzymes to separate viral and vector sequences. The genomes were religated at a concentration of 5 μg/ml to favor intramolecular circularization. Prior to electroporation, J2 feeder cells were removed from the keratinocytes by versene treatment and the HFKs were collected by trypsinization. HFKs (1×10^6) were electroporated with 2 μg of re-circularized viral genomic DNA using the Amaxa Nucleofector II electroporator and the Human Keratinocyte Nucleofector Kit. The Amaxa program optimized for cell survival was used according to the manufacturer's specifications. Cells were removed from the cuvettes immediately following electroporation, and seeded onto 10 cm plates containing irradiated feeder cells and F-medium, in the presence or absence of 10 μM Y-27632, as indicated. At various times post-transfection, low molecular weight DNA was isolated by a modified Hirt extraction procedure (Ustav et al., EMBO J. 10:449-457, 1991). For Southern blot analysis, the isolated DNA was linearized with EcoRI or BamHI, depending on cloning site for each viral genome, and DpnI, to digest any unreplicated input DNA. […]

[5] = test system: telomeres; test: Telomere length assay (real-time PCR); type: cell-based, human
Procedure: Genomic DNA was extracted from cells and the average telomere length was assessed by a modified method of the real-time PCR-based telomere assay described previously (Cawthon et al., Nucleic Acids Res. 30: e47, 2002; Cawthon, Nucleic Acids Res. 37: e21, 2009). Briefly, the telomere repeat copy number to single gene copy number (T/S) ratio was determined using a Bio-Rad IQ5 thermocycler. Genomic DNA (5 ng) was subjected to PCR reactions and detected with SYBR Green Super Mix (Bio-Rad). The primers for telomere length and HBG1 (a single copy gene) were as follows. Reaction conditions were: 1 cycle, 95° C., 5 minutes; 41 cycles, 95° C., 15 seconds,; 1 cycle, 60° C. for 45 seconds. All reactions were carried out in triplicate and compared to a standard curve of 0, 0.2, 1, 5, 25 and 125 ng genomic DNA (telomere length 10.4 kb) from Roche Telo-kit. The T/S ratio (dCt) for each sample was calculated by normalizing the average HBG Ct value to the average telomere Ct value.

[6] = test system: Myc; test: Immunodetection of Myc; type: cell-based, human
Procedure: (§3) Proteins were extracted in 2% sodium dodecyl sulfate (SDS), 50 mM Tris-HCl (pH 6.8), 10% glycerol supplemented with inhibitors Complete and PhosphoSTOP (Roche, Indianapolis, Ind.). Protein samples were resolved on NuPage gels, electrotransferred to Immobilon-P membrane (Millipore, Billerica, Mass.), and probed with the relevant antibodies before detection by chemiluminescence. Monoclonal antibody against p53 (DO-1) was obtained from Santa Cruz Biotechnology (Santa Cruz, Calif.). Monoclonal antibody against α-tubulin (B-5-1-2) was obtained from Sigma-Aldrich. Polyclonal antibodies against Myc (N-262), p21 (C-19), and p16 (C-20) were obtained from Santa Cruz Biotechnology.

[7] = test system: HPV6; test: HPV DNA replication assay (Southern blot) in transfected primary keratinocytes, HPV6; type: cell-based, human papillomavirus; conditions: 10 μM Y-27632, FIG. 6
Procedure: as §2, with “DNA. DNA fragments were separated by agarose gel electrophoresis followed by Southern blot hybridization.” for “DNA.”

[8] = test system: p53; test: Immunodetection of p53 and p21 during culture; type: cell-based, human; conditions: keratinocytes cultured with Y-27632
Procedure: as §3

[9] = 10 μM Y-27632, Example 2, FIG. 14

With CC(N)[C@H]1CC[C@H](C(=O)Nc2ccncc2)CC1 (single isomer, unassigned; (+)) [Y-27632, (+)-trans-N-(4-Pyridyl)-4-(1-aminoethyl)-cyclohexanecarboxamide] the bypass of senescence [1] was “efficiently bypassed senescence with no observed decline in growth rate”, the cellular proliferation [1] was “dramatic increase in cellular proliferation” and the “continued division / growth rate beyond senescence of untreated cells (about 15 passages)” value ([2]; 10 μM Y-27632, Example 1) was “continued to divide without any decrease in growth rate”. The “number of times treated cells were passed” value ([2]; 10 μM Y-27632, Example 1) was “at least 82 times”, the “proliferation rate versus untreated cells” value ([2]; 10 μM Y-27632, Example 1) was “proliferated at a rate that exceeded the untreated cells almost immediately” and the “time in continuous culture” value ([2]; 10 μM Y-27632, Example 1) was “over 10 months”. The passages in culture [2, 9] was “up to 150 passages”, the period of culture [2, 9] was 500 days and the bypass of senescence ([2]; 10 μM Y-27632, FIG. 9) was “efficiently bypassed senescence with no observed decline in growth rate”. For the same molecule, the cellular proliferation ([2]; 10 μM Y-27632, FIG. 9) was “dramatic increase in cellular proliferation”, the “population doubling (PD) to which cells were cultured, considered to be immortal” value ([2]; +Y-27632 (10 μM), HFK strain b) was “PD199” and the “growth after withdrawal of Y-27632” value ([2]; withdrawn at passage 48, after 196 days in culture) was “continued to grow unchecked with only a gradual slowing in the rate of population doubling”. The “karyotype of immortalized cells” value [3] was “identical to that of the donor cells”, the HPV16 copy number [4] was “partially rescued the decline in copy number” and the “relative length of telomeres” value ([5]; passage 50 to 120) was “became stable”. The “relative length of telomeres” value ([5]; with passage in Y-27632, FIG. 11B) was “became progressively shorter with passage”, the Myc protein levels ([6]; immediately after culture with Y-27632, HFK, HCK, HVK, FIG. 12A) was “induced transiently” and the “level of Myc” value ([6]; very late passages (p107), FIG. 16) was “equivalent to that of an HPV31-containing cell line”. The “HPV6 viral DNA levels, long-term assay” value ([7]; after three passes) was “the levels of viral DNA declined”, the “efficiency of HPV6 replication, long-term assay” value ([7]; up to three passes) was “greatly increased the efficiency of replication and robust levels of viral DNA were present after three passes” and the p21 induction [8] was “not induced”. For the same molecule, the p53 protein levels [8] was “gradually increase”.
